US20040161786A1, “Gene panel participative in hepatic stellate cell activation” (priority 2001, published 2004)

Test system: hepatic fibrosis
Assay: Dimethylnitrosamine (DMN)-induced hepatic fibrosis, hydroxyproline (Hyp) in the liver
Type: in vivo
Conditions: SD male rat, DMN 10 mg/kg i.p. three times a week for four weeks, diet containing 0.5% L-cysteine vs 0.5% casein, 28th day
Description: Hepatic fibrosis was induced by intraperitoneally administering 10 mg/kg of dimethylnitrosamine (DMN) to a 6-week SD male rat three times a week for four weeks. Then, an experimental diet containing 0.5% of L-cysteine (Cys) as a subject and that containing 0.5% of casein as a control were fed from the initiation date of the DMN administration. On the 28th day from the initiation of the […] administration, the liver was sampled from the subject and the amount of hydroxyproline (Hyp) in the liver was measured as an index of hepatic fibrosis using an amino acid analyzer.

N[C@@H](CS)C(=O)O [cysteine, L-cysteine]
increase in Hyp in the liver (index of hepatic fibrosis): significantly suppressed
